Results as given in PMC5490399, “Glycosaminoglycan Binding and Non-Endocytic Membrane Translocation of Cell-Permeable Octaarginine Monitored by Real-Time In-Cell NMR Spectroscopy” (Pharmaceuticals, 2017).
Non-standard residues stand in square brackets, D forms with d. Residues, ends and D or L forms follow the SMILES beside them. Phe(4-CF3) = N[C@@H](Cc1ccc(C(F)(F)F)cc1)C(=O)O

Legend:
Assay type in all cases: cell-based, human
HL60 cells [1] = assay: Steady state 19F NMR after cell fractionation (final distribution); conditions: 19F NMR at 4 °C
Method: In the previous sections, we succeeded in comprehensive observation and quantitative analysis of the non-endocytic translocation of ^19F-R8 to the cell inside. To confirm that ^19F-R8 is actually transferred to cytosol across the cell membrane, the final distribution of ^19F-R8 was evaluated by cell fractionation after equilibrium was attained in real-time NMR measurements. Membrane solubilization and centrifugation techniques were combined in accordance with Scheme 1. First, we examined how much of ^19F-R8 was finally bound to cells. In Figure 7a, the ^19F NMR spectra of ^19F-R8 in the supernatant I is compared with total ^19F-R8 as a control at 4 °C. The ^19F NMR signal intensity of the supernatant I corresponds to ^19F-R8 that is still in a free (unbound) state under equilibrium. […] The value is consistent with the result of the real-time in-cell NMR measurement showing about 65 μM (81%) of ^19F-R8 is remaining in a free state after the equilibrium is attained (Figure 6). Next, to confirm that ^19F-R8 is actually bound to HL60 cell, the cell pellet I was solubilized by lysis buffer containing 1% Triton X-100. After the centrifugation, the supernatant II was subject to ^19F NMR measurement at 4 °C. The spectrum is shown in Figure 7b as Lysate, and 13% of the initial ^19F-R8 was detected.
It is considered that three components of ^19F-R8 are contained in the Lysate. They include ^19F-R8 bound to GAG or cell membrane, and ^19F-R8 in cytosol. We separated these components as the supernatant III and the pellet III by centrifuging the Lysate at 100,000× g. Supernatant III consists of ^19F-R8 in cytosol, and pellet III contains ^19F-R8 bound to GAG or cell membrane (referred as Membrane); see Scheme 1. […] It should be noted that the observed chemical shift of NMR signal in this system is too complicated to understand. For example, the cell solubilization exposes ^19F-R8 to numerous molecules derived from cells. Also, the cytosol fraction was obtained by lyophilization of 50 mL lysis buffer A. This leads to the increased concentrations of components (Triton X-100, Tris-HCl, EDTA, NaCl in lysis buffer A) in the final sample to be measured. The condition of the solvent such as ionic strength and pH affects the chemical shift of ^19F-R8 NMR signal. Thus the integral NMR intensity is useful for the steady state NMR spectra because it is basically proportional to the nuclear concentration.
The amount of ^19F-R8 finally delivered to the cytosol was quantified by ^19F NMR under equilibrium in combination with the cell fractionation using membrane solubilization and centrifugation. The cell fractionation procedures are summarized in Scheme 1. After the real-time ^19F NMR measurement, 4 mL of the sample were centrifuged at 1500× g for 5 min at 4 °C. Pellet I was washed twice with 4 mL of PBS and centrifuged again. Then the 8 mL of supernatant I was collected and subject to ^19F NMR measurement at 4 °C, to quantify free ^19F-R8. Next, 4 mL of lysis buffer A (1% Triton X-100, 50 mM Tris-HCl, 50 mM EDTA, 150 mM NaCl, 10% D2O) was added to pellet I, and left for 15 min on ice to complete the cell membrane solubilization. The solution was centrifuged at 15,000× g for 15 min at 4 °C, to separate pellet II and supernatant II. Then, supernatant II was collected and subjected to ^19F NMR measurement at 4 °C (called Lysate). After measurement, 50 mL of lysis buffer A was added and centrifuged at 100,000× g for 3 h at 4 °C. […]

HL60 cells [2] = tested on: HL60 cells
Method: (§1) One-dimensional in-cell ^19F NMR measurements were carried out at 376.2 MHz by using a JEOL ECA400 NMR spectrometer equipped with a superconducting magnet of 9.4 T. A multinuclear probe (JEOL, NM40T10A/AT) for a 10-mm diameter tube was used. Detailed procedures of the measurement are described elsewhere. Briefly, HL60 cells (the final concentration, 1 × 10^7 cells/mL) were suspended in phosphate-buffered saline (PBS, pH 7.4) at 4 °C and put into a NMR tube. In order to confirm no contribution of energy-dependent endocytosis at 4 °C, the comparative measurement was also performed at 37 °C. To avoid cellular toxicity, the amount of D2O used for the signal lock was decreased to 10%. The sample was gently rotated to prevent the sedimentation of the cells. Field-gradient shimming was applied before the addition of the peptide, to quickly attain the spectral resolution. The measurements started immediately after the thermal equilibrium was attained, 1.5 min after the addition of the ^19F-labeled peptides. […] Cell viability, assessed by the trypan blue staining after the NMR measurement at 4 °C, was 92% ± 1% for ^19F-R8 and 94% ± 1% for ^19F-T6 with respect to the control value, 94% ± 2%. […]
Cell peptide concentrations inside and outside were estimated by using the signal intensities of real-time ^19F NMR difference spectra in Figure 2b. Figure A1 illustrates how peptide concentrations were determined from the ^19F NMR spectra. […]
The concentration of these three components can be evaluated from the signal intensities by integrating the respective peak areas. […] Since the total ^19F-R8 concentration is 80 μM, the concentrations of free, bound to GAG, and membrane components are calculated to be […], 9, and 5 μM, respectively.
Figure A1 Illustration of the signal intensity estimation in the ^19F NMR difference spectrum. […] The concentration of these three components can be evaluated from the signal intensities by integrating the respective peak areas (see text).

HL60 cells [3] = conditions: 100 μM
Method: as §1, with “peptides. The final concentrations of ^19F-R8 and ^19F-T6 were 80 μM and 100 μM, respectively, and these were high enough to observe non-endocytic translocation.” for “peptides.”

Compound	peptide in a free state (supernatant I) under equilibrium (HL60 cells [1]; HL60, after real-time NMR at 4 °C, centrifugation 1500× g, pH 7.4, versus total peptide) [%]	peptide in cytosol fraction (supernatant III) (HL60 cells [1]; Lysate centrifuged at 100,000× g)	peptide in membrane fraction (pellet III) (HL60 cells [1]; Lysate centrifuged at 100,000× g, equilibrium state)	peptide detected in Lysate (supernatant II), of the initial peptide (HL60 cells [1]; pellet I solubilized with 1% Triton X-100 lysis buffer, 15,000× g, pH 7.5) [%]	peptide in DNA and cytoskeleton fraction (pellet II) (HL60 cells [1]; pellet II solubilized)	time at which transfer to cytosol was first observed (HL60 cells [2]; HL60, PBS pH 7.4, 4 °C, 80 μM peptide)	degradation of peptide in the presence of HL60 cells (integral 19F NMR intensity) (HL60 cells [2]; pH 7.4)	Cell viability (HL60 cells [3])	interaction with HL60 cells (change of 19F NMR and difference spectrum) (HL60 cells [2])
CC(=O)N[C@@H](Cc1ccc(C(F)(F)F)cc1)C(=O)N[C@@H](CCCNC(=N)N)C(=O)N[C@@H](CCCNC(=N)N)C(=O)N[C@@H](CCCNC(=N)N)C(=O)N[C@@H](CCCNC(=N)N)C(=O)N[C@@H](CCCNC(=N)N)C(=O)N[C@@H](CCCNC(=N)N)C(=O)N[C@@H](CCCNC(=N)N)C(=O)N[C@@H](CCCNC(=N)N)C(N)=O [^19F-R8]	77	observed in the cytosol fraction	within the experimental error	13	not yet detectable	around 5 min	no degradation		
CC[C@H](C)[C@H](NC(=O)CNC(=O)[C@H](CO)NC(=O)[C@H](CC(=O)O)NC(=O)[C@H](Cc1ccc(C(F)(F)F)cc1)NC(=O)[C@@H](NC(=O)[C@@H](N)[C@@H](C)O)C(C)C)C(=O)N[C@@H](CO)C(=O)N[C@@H](CCC(=O)O)C(=O)N[C@H](C(=O)N[C@@H](CCCNC(=N)N)C(=O)O)C(C)C [^19F-T6, reference compound] (H-TV[Phe(4-CF3)]DSGISEVR-OH)								94% ± 1%	no interaction occurs
